From patent publication US9725414B2, “Fungicidal N-bicycloalkyl and N-tricycloalkyl pyrazole-4-(thio)carboxamide derivatives” (priority 2011, dated 2017) come the findings set out here.

One series deals with Botrytis cinerea. The experiment in a line: Example P: in vivo preventive test on Botrytis cinerea (grey mould), gherkin plants. Conditions: 500 ppm of active ingredient, grading 4 to 5 days after contamination. On the procedure:
In Vivo Preventive Test on Botrytis cinerea (Grey Mould) […] Gherkin plants (“Vert petit de Paris” variety), sown in starter cups on a 50/50 peat soil pozzolana substrate and grown at 24° C. are treated at the Z11 cotyledon stage by spraying with the active ingredient prepared as described above. Plants, used as controls, are treated with the mixture of acetone/tween/DMSO/water not containing the active material. After 24 hours, the plants are contaminated by spraying the cotyledons with an aqueous suspension of cryopreserved Botrytis cinerea spores (50 000 spores per mL). The spores are suspended in a nutrient solution composed of 10 g/L of PDB, 50 g/L of D-Fructose, 2 g/L of NH4NO3 and 1 g/L of KH2PO4. The contaminated gherkin plants are incubated at 17° C. and at 90% relative humidity. Grading (% of efficacy) is carried out 4 to 5 days after the contamination, in comparison with the control plants.

The subject of another series is Pyrenophora teres. In words: Example F: in vivo preventive test on Pyrenophora teres (barley), acetone/tween/DMSO preparation. Conditions: grading 14 days after contamination. On the procedure: In Vivo Preventive Test on Pyrenophora teres (Barley) […] Barley plants (“Plaisant” variety), sown in starter cups on a 50/50 peat soil pozzolana substrate and grown at 22° C., are treated at the 1 leaf stage (10 cm height) by spraying with the active ingredient prepared as described above. Plants, used as controls, are treated with the mixture of acetone/tween/DMSO/water not containing the active material. After 24 hours, the plants are contaminated by spraying the leaves with an aqueous suspension of Pyrenophora teres spores (12 000 spores per mL). The spores are collected from a 12-day-old culture. […] Grading (% of efficacy) is carried out 14 days after the contamination, in comparison with the control plants.

Series [1] in a line: log P by HPLC on reversed-phase column (C 18), EEC Directive 79831 Annex V.A8. The format is physicochemical. The protocol: In table 1, the log P values were determined in accordance with EEC Directive 79831 Annex V.A8 by HPLC (High Performance Liquid Chromatography) on a reversed-phase column (C 18), using the method described below: Temperature: 40° C.; Mobile phases: 0.1% aqueous formic acid and acetonitrile; linear gradient from 10% acetonitrile to 90% acetonitrile. Calibration was carried out using unbranched alkan-2-ones (comprising 3 to 16 carbon atoms) with known log P values (determination of the log P values by the retention times using linear interpolation between two successive alkanones). lambda-max-values were determined using UV-spectra from 200 nm to 400 nm and the peak values of the chromatographic signals.

The next series relates to Puccinia recondita. The experiment in a line: Example M: in vivo preventive test on Puccinia recondita (brown rust on wheat). Conditions: 500 ppm of active ingredient, grading 12 days after contamination. On the procedure: In Vivo Preventive Test on Puccinia recondita (Brown Rust on Wheat) […] Wheat plants (“Scipion” variety), sown in starter cups on a 50/50 peat soil pozzolana substrate and grown at 22° C., are treated at the 1 leaf stage (10 cm height) by spraying with the active ingredient prepared as described above. Plants, used as controls, are treated with the mixture of acetone/tween/DMSO/water not containing the active material. After 24 hours, the plants are contaminated by spraying the leaves with an aqueous suspension of Puccinia recondite spores (100 000 spores per mL). The spores are collected from an infected plant and are suspended in water containing 2.5 mL/L of Tween 80 at 10%. […] Grading (% of efficacy) is carried out 12 days after the contamination, in comparison with the control plants.

Another series concerns Alternaria brassicae. The experiment in a line: Example D: in vivo preventive test on Alternaria brassicae (leaf spot on radish). Conditions: grading 6 days after contamination. On the procedure:
In Vivo Preventive Test on Alternaria brassicae (Leaf Spot on Radish) […] Radish plants (“Pernod Clair” variety), sown in starter cups on a 50/50 peat soil pozzolana substrate and grown at 17° C., are treated at the cotyledon stage by spraying with the active ingredient prepared as described above. Plants, used as controls, are treated with the mixture of acetone/tween/DMSO/water not containing the active material. After 24 hours, the plants are contaminated by spraying the cotyledons with an aqueous suspension of Alternaria brassicae spores (50 000 spores per mL). The spores are collected from a 15-day-old culture. The contaminated radish plants are incubated at 20° C. and at 100% relative humidity. Grading (% of efficacy) is carried out 6 days after the contamination, in comparison with the control plants.

For a further series, the system named is Septoria tritici. In words: Example I: in vivo preventive test on Septoria tritici (wheat), acetone/tween/DMSO preparation. Conditions: 500 ppm of active ingredient, grading 24 days after contamination. The protocol: In Vivo Preventive Test on Septoria tritici (Wheat) […] Wheat plants (“Scipion” variety), sown in starter cups on a 50/50 peat soil pozzolana substrate and grown at 22° C., are treated at the 1 leaf stage (10 cm height) by spraying with the active ingredient prepared as described above. Plants, used as controls, are treated with the mixture of acetone/tween/DMSO/water not containing the active material. After 24 hours, the plants are contaminated by spraying the leaves with an aqueous suspension of cryopreserved Septoria tritici spores (500 000 spores per mL). The contaminated wheat plants are incubated for 72 hours at 18° C. and at 100% relative humidity, and then for 21 days at 90% relative humidity. Grading (% of efficacy) is carried out 24 days after the contamination, in comparison with the control plants.

A further series has as its system Sphaerotheca fuliginea. The experiment in a line: Example B: in vivo preventive test on Sphaerotheca fuliginea (powdery mildew on cucurbits), gherkin plants. Conditions: 500 ppm of active ingredient, grading 12 days after contamination. The protocol:
In Vivo Preventive Test on Sphaerotheca fuliginea (Powdery Mildew on Cucurbits) […] Gherkin plants (“Vert petit de Paris” variety), sown in starter cups on a 50/50 peat soil-pozzolana substrate and grown at 24° C. are treated at the Z11 cotyledon stage by spraying with the active ingredient prepared as described above. Plants, used as controls, are treated with the mixture of acetone/tween/DMSO/water not containing the active material. After 24 hours, the plants are contaminated by spraying the cotyledons with an aqueous suspension of Sphaerotheca fuliginea spores (100 000 spores per mL). The spores are collected from infected plants.

The test system of a further series is Uromyces appendiculatus. In words: Example Q: in vivo preventive test on Uromyces appendiculatus (bean rust). Conditions: Uromyces appendiculatus on bean plants, 500 ppm of active ingredient, grading 11 days after contamination. The protocol:
In Vivo Preventive Test on Uromyces appendiculatus (Bean Rust) […] Bean plants (“Saxa” variety), sown in starter cups on a 50/50 peat soil pozzolana substrate and grown at 24° C., are treated at the 2 leaf stage (9 cm height) by spraying with the active ingredient prepared as described above. Plants, used as controls, are treated with the mixture of acetone/tween/DMSO/water not containing the active material. After 24 hours, the plants are contaminated by spraying the leaves with an aqueous suspension of Uromyces appendiculatus spores (150 000 spores per mL). The spores are collected from infected plants and are suspended in water containing 2.5 mL/L of Tween 80 at 10%. […] Grading (% of efficacy) is carried out 11 days after the contamination, in comparison with the control plants.

Where [2] appears, read: 500 ppm of active ingredient, barley.
[3] abbreviates: HPLC reversed-phase C 18, 40° C., 0.1% aqueous formic acid and acetonitrile gradient, several values = mixture of two or more isomers.
[4] abbreviates: Pyrenophora teres on barley, 100 ppm of active ingredient.

Where two headings read alike, the source gives them in different places.

Consider `Cn1nc(C(F)F)c(C(=O)N(C2CC2)C2CCC3CCCC32)c1F` (stereo not drawn) [Example 4], for which the Efficacy came out at 80% in the series on Botrytis cinerea, 100% in the series with Pyrenophora teres (setting [2]), 78% in the series with Puccinia recondita and 100% in the series with Alternaria brassicae (500 ppm of active ingredient). Also, the logP in series [1] (setting [3]) was 3.55.
As to `Cn1cc(C(=O)NCC2C3CC4CC(C3)CC2C4)c(C(F)F)n1` (stereo not drawn) [Example 92], the figures for the Efficacy in the series on Botrytis cinerea, with Septoria tritici and with Alternaria brassicae (500 ppm of active ingredient) were 100%, 83% and 96%, respectively. Moreover, the logP in series [1] (setting [3]) was 3.27.
As to `Cn1nc(C(F)F)c(C(=O)N(C2CC2)C2CCCC3CCCCC32)c1Cl` (stereo not drawn) [Example 32], the Efficacy with Sphaerotheca fuliginea amounted to 100%; in the series with Pyrenophora teres (setting [2]) it was 97%; with Puccinia recondita it was 98%; with Uromyces appendiculatus it was 89%; in the series on Septoria tritici it was 80%; in the series with Alternaria brassicae (500 ppm of active ingredient), 100%. Further, the logP in series [1] (setting [3]) is 4.68.
For the compound `Cn1cc(C(=O)N(CC2CCCC3CCCC32)C2CC2)c(C(F)F)n1` (mixture of isomers) [Example 61], the Efficacy in the series with Pyrenophora teres (setting [4]) is 100%; in the series on Alternaria brassicae (100 ppm of active ingredient), 92%.
On to `Cn1nc(C(F)F)c(C(=O)N(CC2CCCC3CCCC32)C2CC2)c1F` (mixture of isomers) [Example 60], for which the Efficacy came to 98% in the series with Pyrenophora teres (setting [4]) and 100% in the series with Alternaria brassicae (100 ppm of active ingredient).
With `CC(C1CC2C=CC1C2)N(C(=O)c1c(C(F)F)nn(C)c1F)C1CC1` (mixture of isomers) [Example 101], the Efficacy in the series on Botrytis cinerea is recorded as 98%; in the series with Sphaerotheca fuliginea it was 100%; in the series with Pyrenophora teres (setting [2]), 100%; in the series on Septoria tritici it was 100%; in the series with Alternaria brassicae (500 ppm of active ingredient), 92%.
On to `CC1C(NC(=O)c2c(C(F)F)nn(C)c2F)CC2CC1C2(C)C` (stereo not drawn) [Example 49], for which the Efficacy is 98% in the series with Botrytis cinerea, 88% in the series on Pyrenophora teres (setting [2]) and 96% in the series with Alternaria brassicae (500 ppm of active ingredient). Also, the log partition coefficient (logP) in series [1] (setting [3]) amounted to 3.61.
For the compound `CN(C(=O)c1c(C(F)F)nn(C)c1F)C1CCC2CCCCC21` (stereo not drawn) [Example 8], the figures for the Efficacy in the series on Pyrenophora teres (setting [4]) and in the series with Alternaria brassicae (100 ppm of active ingredient) were 98% and 100%, respectively. This compound also registered a logP in series [1] of 3.35.
On to `Cn1nc(C(F)F)c(C(=O)NCC2C3CC4CC(C3)CC2C4)c1Cl` (stereo not drawn) [Example 91], for which the Efficacy in the series on Botrytis cinerea was found to be 99%; in the series with Pyrenophora teres (setting [2]) it was 75%; in the series with Alternaria brassicae (500 ppm of active ingredient) it was 96%. Besides, the logP in series [1] (setting [3]) is reported as 3.90.
`Cn1cc(C(=O)N(C2CC2)C2CCC3CCCC32)c(C(F)F)n1` (stereo not drawn) [Example 7]: the Efficacy stood at 100% in the series on Sphaerotheca fuliginea; 100% in the series on Pyrenophora teres (setting [2]); 98% with Puccinia recondita; 94% in the series with Uromyces appendiculatus; 97% in the series on Septoria tritici; 80% in the series on Alternaria brassicae (500 ppm of active ingredient). Further, the logP in series [1] (setting [3]) worked out at 3.19.
In the case of `CC1C(NC(=O)c2c(C(F)F)nn(C)c2F)CC2CC1C2(C)C` (stereo not drawn) [Example 50], the Efficacy in the series with Botrytis cinerea is listed as 99%; in the series with Sphaerotheca fuliginea, 90%; in the series with Pyrenophora teres (setting [2]) it was 88%; in the series on Septoria tritici, 97%; in the series on Alternaria brassicae (500 ppm of active ingredient) it was 80%. The logP in series [1] (setting [3]) was 3.61.
As to `CON(C(=O)c1c(C(F)F)nn(C)c1F)C1CCC2CCCCC21` (stereo not drawn) [Example 10], the Efficacy with Sphaerotheca fuliginea is reported as 100%; in the series with Pyrenophora teres (setting [2]) it was 93%; in the series with Puccinia recondita it was 100%; with Uromyces appendiculatus it was 100%; in the series on Septoria tritici, 93%; in the series with Alternaria brassicae (500 ppm of active ingredient), 100%. Moreover, in series [1] (setting [3]), the logP is recorded as 3.72.
In the case of `Cn1cc(C(=O)N(CC2CCC3CCCC32)C2CC2)c(C(F)F)n1` (stereo not drawn) [Example 59], the Efficacy in the series with Botrytis cinerea is recorded as 100%; in the series on Sphaerotheca fuliginea, 100%; with Pyrenophora teres (setting [2]) it was 100%; with Puccinia recondita, 89%; with Uromyces appendiculatus it was 75%. In addition, the logP in series [1] (setting [3]) stood at 3.50.
In the case of `Cn1nc(C(F)F)c(C(=O)N(C2CC2)C2CCC3CCCC32)c1F` (stereo not drawn) [Example 5], the Efficacy is recorded as 98% with Sphaerotheca fuliginea; 97% in the series on Pyrenophora teres (setting [2]); 100% in the series with Puccinia recondita; 100% with Uromyces appendiculatus; 100% with Septoria tritici; 100% in the series on Alternaria brassicae (500 ppm of active ingredient). For the same compound, the logP in series [1] (setting [3]) amounted to 3.65.
As to `Cn1nc(C(F)F)c(C(=O)NCC2C3CC4CC(C3)CC2C4)c1F` (stereo not drawn) [Example 90], the Efficacy was determined as 100% in the series with Botrytis cinerea, 81% in the series on Pyrenophora teres (setting [2]), 92% in the series with Septoria tritici and 90% in the series with Alternaria brassicae (500 ppm of active ingredient). For the same compound, in series [1] (setting [3]), the logP is listed as 3.68.
Turning to `CN(C(=O)c1cn(C)nc1C(F)F)C1CCC2CCCCC21` (stereo not drawn) [Example 9], the results for the Efficacy in the series with Pyrenophora teres (setting [4]) and in the series on Alternaria brassicae (100 ppm of active ingredient) were 75% and 100%, respectively. Further, the logP in series [1] is reported as 2.88.
Consider `Cn1nc(C(F)F)c(C(=O)N(CC2CCCC3CCCCC32)C2CC2)c1Cl` (stereo not drawn) [Example 67], for which the Efficacy is 100% in the series with Sphaerotheca fuliginea; 98% in the series with Pyrenophora teres (setting [2]); 97% with Puccinia recondita; 87% in the series on Uromyces appendiculatus; 94% with Septoria tritici; 97% in the series with Alternaria brassicae (500 ppm of active ingredient). For the same compound, the logP in series [1] (setting [3]) is 5.08.

For orientation: logP means a log measure of how a compound divides between an organic and an aqueous phase.
